Data set [1] deals with Hela, human cervical carcinoma. Briefly: preliminary anti-tumor screening in vitro, MTT method. It counts as cell-based. The following applies: read-out: inhibition rates (%) Hela. In a few lines: (§1)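 Inhibition rates measured at 0.1, 1 or 10 μM compound; cell growth read by MTT for Hela, SRB for BGC-823, MCF-7 and A549.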
(Tetrazolium assays rely on reduction of a dye to a coloured formazan, in cell work by metabolically active cells.)

Data set [2] deals with A549, human lung cancer. In words: preliminary anti-tumor screening in vitro, SRB method. Type of data set: cell-based. The note with it: read-out: inhibition rates (%) A549. An outline of the steps:
as §1
(Sulforhodamine B stains cellular protein and so reports cell mass.)

Data set [3] deals with BGC-823, liver cancer. The description is as above. It counts as cell-based. The note with it: Homo sapiens, read-out: inhibition rates (%) BGC-823. In a few lines: as §1
Data set [4] has as its system MCF-7, breast cancer. The data set is described as above. It counts as cell-based. The note with it: Homo sapiens, read-out: inhibition rates (%) MCF-7; for inhibition at 0.1 µM: MCF7, 0.1 μM; for inhibition at 1 µM: MCF7, 1 μM; for inhibition at 10 µM: MCF7, 10 μM. An outline of the steps:
as §1

Data set [5] concerns HL-60. In words: anti-tumor activity in vitro (IC50), MTT. It counts as cell-based. The note with it: Homo sapiens, 72 h. In a few lines: (§2)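 Following a 24 h settling period at 3.5×10^4 cells/mL, triplicate wells got compound or 0.5% DMSO control for 72 h (37° C, 5% CO2).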
The subject of data set [6] is Hela. Briefly: anti-tumor activity in vitro (IC50), MTT. The note with it: Homo sapiens, 72 h. Type of data set: cell-based. An outline of the steps: as §2
In data set [7] the test system is HepG2 liver cancer cells. In words: anti-tumor activity in vitro (IC50), MTT. Type of data set: cell-based. The following applies: Homo sapiens, 72 h. In a few lines:
as §2

The test system of data set [8] is MGC803 stomach cancer cells. In words: anti-tumor activity in vitro (IC50), MTT. Type of data set: cell-based. The following applies: Homo sapiens, MGC-803, 72 h. In a few lines:
as §2

Data set [9] deals with T1, 20S proteasome extracted from rat liver (CT-L) (Rattus norvegicus, UniProt P18421+P28075).
T1 construct: 20S proteasome extracted from rat liver; from tissue; host or cells: rat liver
In words: inhibition of 20S proteasome, CT-L activity (fluorescent peptide). It counts as biochemical. The note with it: for inhibition at 0.2 µM / inhibition at 2 µM / inhibition at 20 µM: rat liver 20S proteasome, 37° C., 1 h, read-out: inhibition rates (%) CT-L. As for the experimental part:
(§3) 1 μg of 20S proteasome extracted from rat liver was incubated with a 100 μL solution containing various concentrations of the present compounds, 50 μM fluorescent peptides and 20 mM Tris-HCl at 37° C. for 1 h, respectively. […] 0.1% DMSO was used as a solvent control. Compared with the fluorescence of solvent control, an inhibition rate or IC50 value was calculated.

Data set [10] has as its target T2, 20S proteasome extracted from rat liver (PGPH) (Rattus norvegicus, UniProt P28073+Q9JHW0).
T2 construct: 20S proteasome extracted from rat liver; from tissue; host or cells: rat liver
Briefly: inhibition of 20S proteasome, PGPH activity (fluorescent peptide). The note with it: for inhibition at 0.2 µM / inhibition at 2 µM / inhibition at 20 µM: rat liver 20S proteasome, 37° C., 1 h, read-out: inhibition rates (%) PGPH. Type of data set: biochemical. As to the method:
as §3

Data set [11] has as its target T3, 20S proteasome extracted from rat liver (T-L) (Rattus norvegicus, UniProt P40112+Q9JHW0).
T3 construct: 20S proteasome extracted from rat liver; from tissue; host or cells: rat liver
In words: inhibition of 20S proteasome, T-L activity (fluorescent peptide). Type of data set: biochemical. The following applies: for inhibition at 0.2 µM / inhibition at 2 µM / inhibition at 20 µM: rat liver 20S proteasome, 37° C., 1 h, read-out: inhibition rates (%) T-L. As to the method:
as §3

Data set [12] deals with 95D. Briefly: anti-tumor activity in vitro (IC50), MTT. Type of data set: cell-based. The note with it: Homo sapiens, 72 h. In a few lines:
as §2

Data set [13] concerns A549. Briefly: anti-tumor activity in vitro (IC50), MTT. The note with it: Homo sapiens, 72 h. Type of data set: cell-based. An outline of the steps: as §2
In data set [14] the test system is BEL7404. Briefly: anti-tumor activity in vitro (IC50), MTT. Type of data set: cell-based. The note with it: Homo sapiens, BEL-7404, 72 h. An outline of the steps:
as §2

The subject of data set [15] is HCT116. Briefly: anti-tumor activity in vitro (IC50), MTT. It counts as cell-based. The following applies: Homo sapiens, HCT-116, 72 h. In a few lines: as §2
The subject of data set [16] is MDA-MB-231. In words: anti-tumor activity in vitro (IC50), MTT. Type of data set: cell-based. The note with it: Homo sapiens, 72 h. An outline of the steps: as §2
The subject of data set [17] is MKN45. Briefly: anti-tumor activity in vitro (IC50), MTT. The note with it: Homo sapiens, MKN-45, 72 h. Type of data set: cell-based. An outline of the steps: as §2
Data set [18] relates to SKOV3. Briefly: anti-tumor activity in vitro (IC50), MTT. It counts as cell-based. The following applies: Homo sapiens, SK-OV-3, 72 h. In a few lines: as §2
In data set [19] the test system is SW1990. Briefly: anti-tumor activity in vitro (IC50), MTT. It counts as cell-based. The following applies: Homo sapiens, 72 h. In a few lines: as §2
Setting [20] is: liver cancer cells, read-out: IC50 (μM) HepG2.
Where [21] appears, read: stomach cancer cells, MTT, read-out: IC50 (μM) MGC803.

For six compounds, inhibition, IC50 and melting point results are on record in US10494384B2, “Urea peptoid boric acid compound, pharmaceutical composition thereof, preparation method therefor, and uses thereof” (Peking University, priority 2015, dated 2019).

Read-outs that look alike come from different tables or passages of the source.

With `CC(C)C[C@H](NC(=O)[C@H](Cc1ccccc1)NC(=O)c1cnccn1)B(O)O` [positive control, bortezomib, reference compound], the inhibition (commonly the relative decrease from the control value, in per cent) at 0.1 µM in data set [1] amounted to 41.6%; in data set [2], 59.9%; in data set [3] it was 41%; in data set [4] it was 27.6%. The inhibition at 1 µM was determined as 43.2% in [1], 63.8% in [2], 43.6% in data set [3] and 32.8% in [4]. The inhibition at 10 µM in data set [1] is 47.3%; in data set [2], 66.1%; in data set [3], 46.8%; in [4] it was 40.7%. Further, the IC50 (commonly the concentration needed to halve the response being measured) in [5] turned out to be 7.6 nM; in data set [6], 224 nM; in data set [7] (read-out: IC50 HepG2) it was 0.00161 µM; in [7] (setting [20]), 0.0366 µM; in [8] (MGC80-3, MTT, value ± spread, read-out: IC50 (μM), growth of stomach cancer cells (MGC80-3)) it was 0.0057 ± 0.001 µM; in data set [8] (MTT, read-out: IC50 MGC803), 0.00654 µM. The IC50 in data set [8] (setting [21]) is 0.00578 µM.
In the case of `CC(C)C[C@H](NC(=O)[C@H](Cc1ccccc1)NC(=O)NCc1ccc(F)c(F)c1)B(O)O` [Example 35, N-L-phenylalanyl-L-leucine borate-N′-3,4-difluoro-benzylamine-urea], the half-maximal inhibitory concentration (IC50) in data set [9] was found to be 2 nM; in data set [10], 110 nM; in [11] it was 340 nM; in [6], 255 nM; in [7] (read-out: IC50 HepG2) it was 0.019 µM; in [7] (setting [20]), 0.0388 µM. Moreover, the IC50 came out at 0.0167 µM in data set [8] (MTT, read-out: IC50 MGC803) and 0.0067 µM in [8] (setting [21]).
On to `CC(C)C[C@H](NC(=O)[C@H](Cc1ccccc1)NC(=O)NCc1cccc(Cl)c1Cl)B(O)O` [Example 20, N-L-phenylalanyl-L-leucine borate-N′-(2,3-dichloro-benzylamine)-urea], for which the melting point – broadly, the temperature, or range, at which the solid turns liquid – fell in the range of 119 to 122 °C. Also, in [9], the inhibition at 0.2 µM was determined as 91.9%, the inhibition at 2 µM came out at 96.5% and the inhibition at 20 µM is 97%. Further, in data set [10], the inhibition at 0.2 µM is -23%, the inhibition at 2 µM is -26.6% and the inhibition at 20 µM is -28.9%. In [11], the inhibition at 0.2 µM is 35.6%, the inhibition at 2 µM came to 83.7% and the inhibition at 20 µM was 92.6%. Moreover, in [1], the inhibition at 0.1 µM was 17.4%, the inhibition at 1 µM was 42.5% and the inhibition at 10 µM worked out at 75.7%. In addition, in [2], the inhibition at 0.1 µM was found to be 65%, the inhibition at 1 µM was 68.2% and the inhibition at 10 µM stood at 69.3%. For the same compound, in [3], the inhibition at 0.1 µM came out at 50%, the inhibition at 1 µM stood at 47.1% and the inhibition at 10 µM was determined as 50.2%. For the same compound, in [4], the inhibition at 0.1 µM amounted to 32.2%, the inhibition at 1 µM came to 42.2% and the inhibition at 10 µM was found to be 45.5%. In [12], this compound registered an IC50 of 41 nM. For the same compound, inhibition in data set [13] was half-maximal at 1020 nM (IC50). Also, 42.2 nM corresponded to half-maximal inhibition in data set [14] (IC50). In data set [15], this compound came in with an IC50 of 23 nM. Further, the IC50 in data set [5] stood at 27 nM. Further, in [6], the IC50 was determined as 117 nM. For the same compound, the IC50 in [7] (read-out: IC50 HepG2) came out at 0.026 µM. The IC50 in data set [7] (setting [20]) came out at 0.0378 µM. In data set [16], this compound displayed an IC50 of 25.1 nM. Moreover, the IC50 in data set [8] (MTT, read-out: IC50 MGC803) is 0.0175 µM. In [8] (setting [21]), the IC50 was determined as 0.00733 µM. For the same compound, the IC50 in data set [17] was found to be 20.1 nM. In data set [18], this compound registered an IC50 of 46.3 nM. The compound further had an IC50 in [19] of 80.3 nM.
Compound `CC(C)C[C@H](NC(=O)N[C@@H](Cc1ccccc1)C(=O)Nc1cnccn1)B1OC2C[C@H]3C[C@H](C3(C)C)[C@@]2(C)O1` (stereo partly drawn) [Example 7, N-L-leucine borate pinanediol ester-N′-(pyrazin-2-ylcarbamoyl)-L-phenylalanine-urea] yielded a melting point of 93 to 95 °C. In data set [9], the inhibition at 0.2 µM worked out at 23.4%, the inhibition at 2 µM was 47.2% and the inhibition at 20 µM came out at 82.6%. In addition, in data set [10], the inhibition at 0.2 µM is 5.76%, the inhibition at 2 µM turned out to be 1.95% and the inhibition at 20 µM worked out at 0.485%. In data set [11], the inhibition at 0.2 µM is -16.5%, the inhibition at 2 µM is -12.6% and the inhibition at 20 µM turned out to be 25.3%. Besides, in data set [1], the inhibition at 0.1 µM stood at 0.48%, the inhibition at 1 µM came out at 5.11% and the inhibition at 10 µM was found to be 14.9%. Besides, in [2], the inhibition at 0.1 µM was -1.53%, the inhibition at 1 µM is 2.54% and the inhibition at 10 µM was 15.5%. In data set [3], the inhibition at 0.1 µM turned out to be 2.21%, the inhibition at 1 µM stood at 0.62% and the inhibition at 10 µM turned out to be 6.88%. Also, in [4], the inhibition at 0.1 µM amounted to 4.81%, the inhibition at 1 µM worked out at 7.4% and the inhibition at 10 µM was 11.7%.
Regarding `CC(C)C[C@H](NC(=O)N[C@@H](Cc1ccccc1)C(=O)Nc1cccc(OCc2ccccc2)c1)B1OC2C[C@H]3C[C@H](C3(C)C)[C@@]2(C)O1` (stereo partly drawn) [Example 5, N-L-leucine borate pinanediol ester-N′-(3-benzyloxy-phenylcarbamoyl)-L-phenylalanine-urea], the melting point is 78 to 80 °C. Also, in data set [9], the inhibition at 0.2 µM is -17.8%, the inhibition at 2 µM was -15.1% and the inhibition at 20 µM is -3.13%. Further, in data set [10], the inhibition at 0.2 µM came to 2.67%, the inhibition at 2 µM worked out at 3.15% and the inhibition at 20 µM amounted to 9.71%. For the same compound, in data set [11], the inhibition at 0.2 µM is -5.23%, the inhibition at 2 µM was -1.52% and the inhibition at 20 µM was 0.968%. Also, in data set [1], the inhibition at 0.1 µM worked out at 7.42%, the inhibition at 1 µM is 10.3% and the inhibition at 10 µM turned out to be 21.8%. Moreover, in data set [2], the inhibition at 0.1 µM turned out to be 3.25%, the inhibition at 1 µM stood at 10.3% and the inhibition at 10 µM was 30.3%. For the same compound, in data set [3], the inhibition at 0.1 µM came out at 5.47%, the inhibition at 1 µM came to 3.19% and the inhibition at 10 µM was 8.66%. For the same compound, in data set [4], the inhibition at 0.1 µM turned out to be 6.37%, the inhibition at 1 µM came out at 8.84% and the inhibition at 10 µM stood at 8.44%.
Take `CC(C)C[C@H](NC(=O)[C@H](Cc1ccccc1)NC(=O)N1CCc2ccccc2C1)B(O)O` [Example 28, N-L-phenylalanyl-L-leucine borate-N′-1,2,3,4-tetrahydroisoquinoline-urea]: the IC50 in [10] was determined as 20 nM; in data set [11], 2380 nM; in data set [6], 532 nM; in data set [7] (read-out: IC50 HepG2), 0.00838 µM; in [7] (setting [20]) it was 0.0194 µM; in [8] (MTT, read-out: IC50 MGC803), 0.00498 µM. In [8] (setting [21]), the IC50 turned out to be 0.00396 µM.
